Laboratory results from patent publication US20150164899A1, “INHIBITION OF ADAPTOR ASSOCIATED KINASE 1 FOR THE TREATMENT OF PAIN” (priority 2012, published 2015).

Tests used:
[1] = target: T1, AAK1 (full length human) in transfected HEK293F cells (Homo sapiens, UniProt Q2M2I8); assay: HEK281 cell-based assay (phospho-mu2 Western blot); conditions: HEK281 cell-based assay; pyrazolo[1,5-a]pyrimidine-based inhibitors; read-out: CBA IC50
T1 construct: expressed in transfected cells; host or cells: HEK293F
T1 sequence (Q2M2I8 1-863 isoform Q2M2I8-2): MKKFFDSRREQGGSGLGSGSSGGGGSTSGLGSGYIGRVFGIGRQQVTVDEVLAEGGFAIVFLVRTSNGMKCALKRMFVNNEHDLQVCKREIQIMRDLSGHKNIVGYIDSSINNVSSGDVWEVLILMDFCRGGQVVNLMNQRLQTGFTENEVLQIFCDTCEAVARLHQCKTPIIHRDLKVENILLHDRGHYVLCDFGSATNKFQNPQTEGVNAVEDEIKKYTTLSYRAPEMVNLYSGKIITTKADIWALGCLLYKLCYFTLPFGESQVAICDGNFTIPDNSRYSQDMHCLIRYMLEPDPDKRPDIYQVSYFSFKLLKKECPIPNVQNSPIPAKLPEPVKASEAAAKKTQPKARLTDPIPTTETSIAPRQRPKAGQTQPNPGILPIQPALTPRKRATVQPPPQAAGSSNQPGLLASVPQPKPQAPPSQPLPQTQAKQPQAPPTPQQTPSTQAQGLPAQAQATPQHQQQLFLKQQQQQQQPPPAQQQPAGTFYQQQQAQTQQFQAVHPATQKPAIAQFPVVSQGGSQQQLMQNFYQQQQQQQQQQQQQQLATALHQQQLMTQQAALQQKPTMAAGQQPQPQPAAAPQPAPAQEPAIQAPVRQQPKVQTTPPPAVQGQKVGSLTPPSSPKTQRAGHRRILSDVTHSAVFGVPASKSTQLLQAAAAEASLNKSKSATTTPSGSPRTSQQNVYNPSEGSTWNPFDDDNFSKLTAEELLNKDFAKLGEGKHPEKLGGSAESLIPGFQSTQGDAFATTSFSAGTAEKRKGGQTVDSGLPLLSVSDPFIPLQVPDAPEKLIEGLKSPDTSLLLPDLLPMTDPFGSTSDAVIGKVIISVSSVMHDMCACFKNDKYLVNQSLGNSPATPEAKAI
Method: HEK293F cells were cultured in media containing DMEM (Gibco, cat. #11965), 10% FBS (SAFC Biosciences, cat. #12103C), 1×GPS (glutamine, penicillin and streptomycin). On day one, cells were plated on a 10 cm dish so that they are ˜80% confluent at time of transfection. Roughly 12 million cells were in a 10 cm dish at time of transfection. On day two, each dish was transfected with 48 ug DNA and 144 ul Lipofectamine 2000 (Invitrogen, cat.#11668-019). The DNA was comprised of a mixture (per 10 cm dish) containing 3 ug AAK1/HA/pIRES (full length human, NCBI accession no. NP_055726.2), 45 μg Flag/AP2MI/pcDNA (full length human), and 1.5 ml OPTI-MEM. The Lipofectamine 2000 is made up of a mixture (per 10 cm dish) containing 144 μl Lipofectamine 2000 and 1.5 ml OPTI-MEM. Each mixture was transferred to individual 15 ml tubes and incubated at RT for 5 minutes, and then the two mixes were combined and incubated at RT for 20 minutes. Growth media was then aspirated from each 10 cm plate and replaced with 10 ml of DMEM+10% FBS (no GPS). Finally, 3 ml DNA/Lipofectamine mix was added to each 10 cm dish and mix gently followed by incubate of plate overnight at 37° C. and 5% CO2.
On day three, compounds were diluted in 100% DMSO at 1000× final concentration, followed by 3-fold serial dilutions for a total of 5 concentrations tested. Four compounds were tested per 10 cm dish. One ul of each compound dilution was then pipetted into a deep-well, 96-well plate, followed by addition of 500 μl DMEM+0.5% FBS into each well for a 2× final concentration of each compound. Cells were resuspended in a 10 cm dish by simple pipetting (HEK293 cells come off the plate that easy at this point) and then transferred to a 50 ml conical tube and pelleted by centrifugation at 1000 rpm for 5 min. Cell pellets were then resuspended in 2.75 ml DMEM+0.5% FBS per 10 cm dish and 100 μl of cell suspension transferred into each well of 96-well TC plate. Finally, 100 μl of 2× compound diluted in DMEM+0.5% FBS was then added into wells containing cell suspension for a 1× final concentration. Plates were then incubated at 37° C. and 5% CO2 for 3 hours followed by transferring of cell suspensions from each well into 12-tube PCR strips. The PCR strips were spun in a tip rack at 1000 rpm for 5 minutes to pellet cells and media was then removed by pipetting without disturbing the cell pellet.
To prepare for Western Blot analysis, cell pellets were resuspend in 40 ul 1×LDS-PAGE sample buffer (Invitrogen, cat.# NP0008)+2× Halt phophatase and protease inhibitor cocktail (Thermo Scientific, cat.#1861284), followed by sonicating each with microtip sonicator set at 5 for 8-10 seconds. Five ul of 10× NuPage Sample Reducing Agent (with […]) was to each sample followed by heat denaturing at 70 C. for 10 min on PCR machine. A total of 10 μl per sample was loaded into each lane of a 4-20% Tris-Glycine Criterion 26-well gel (Biorad, cat.#345-0034) for the phospho-mu2 blot and 10 μl per lane in a 4-12% Bis-Tris (+MES buffer) NuPAGE 26-well gel (Invitrogen, cat.# WG1403BX10) for the mu2 blot. For controls, 2 ng of phospho-mu2 or 20 ng mu2/Flag proteins were loaded in the last well of each gel. After SDS-PAGE, samples on each gel were transferred to PVDF membrane using an iBlot and membranes were blocked for one hour in TBST+5% milk, followed by wash 3× for 5-10 min with TBST. Criterion gels were probed with rabbit anti-phospho-mu2 (1:5000; a rabbit polyclonal antibody produced by New England Peptide and affinity purified at Lexicon) in TBST+5% BSA, whereas, NuPAGE gels were probed with mouse anti-Flag (1:500; Sigma, cat.# F1804) in TBST+5% milk, and these primary antibodies were incubated overnight at 4° C. on a rocker.

[2] = target: T2, AAK1 (full-length human protein) (Homo sapiens, UniProt Q2M2I8); assay: P81 filter plate assay; type: biochemical; conditions: pyrazolo[1,5-a]pyrimidine-based inhibitors
T2 construct: NP_055726.2
T2 sequence (Q2M2I8 1-863 isoform Q2M2I8-2): as above
Method: Compounds were serially diluted into a Labcyte LDV plate (Labcyte, cat# LP-0200) using a Mutiprobe (PerkinElmer) and Biomek FX (Beckman Coulter) so that the highest compound concentration was at 96 μM. Compounds were then pinged (75 nL per well) into a Greiner 384-well reaction plate (Greiner, #781076) using an ECHO 550 Liquid Handler (Labcyte). A total of 12 μl reaction buffer (IMAP buffer containing Tween and DTT, from Molecular Devices) was then added to each well of columns 1 and 13 for the negative controls and 12 μl of 2×AAK1 (0.2 nM full-length human protein, NCBI accession no. NP_055726.2) was added to the remaining wells. Enzyme was then pre-incubated with compound for 10 minutes at RT. Reactions were initiated upon Minitrak (PerkinElmer) addition of 12 μl substrate mix containing 2× Mu2 (0.2 μM, full length human protein), 2× cold ATP (2 μM), and 1.3 μCi of hot ^33P-ATP. Reactions proceeded for one hour at RT. Meanwhile, Millipore 384-well P81 filter plates (Millipore, catalog # MZPHN0W10) were placed on a plate washer (Zoom Z W, from Titertek) and pre-wet with 50 μl 1% phosphoric acid. Kinase reactions were then stopped upon addition of 24 μl of 2% phosphoric acid to each well and the Minitrak was then used to transfer 40 μl from each well into the pre-wet Millipore 384-well P81 filter plates. Reaction mixtures were incubated for 10 minutes at RT in the P81 plates, followed by washing five times with 100 μl/well of 1% phosphoric acid using the Zoom filter washer. The bottom of each filter plate was sealed followed by addition of 20 μl Microscint 40 to each well, sealing the top of the plates with Flashplate cover, and then waiting one hour until reading on the TopCount (PerkinElmer).

[3] = tested on: formalin-induced paw flinching; assay: formalin paw test; type: in vivo; conditions: mice
Method: See example 5.4.1, above. The same test was used to confirm that the administration of an AAK1 inhibitor can also affect pain response.
Mice were tested for nociception with Automatic Nociception Analyzers (purchased from the Ozaki lab at University of California, San Diego). A metal band was placed around the left hind paw of each mouse with superglue 30 minutes prior to testing. After the 30-minute acclimation period, 20 μl of 5% formalin was subcutaneously injected in the dorsal surface of the left hind paw. Mice were individually housed in cylindrical chambers for 45 minutes. Fresh 5% formalin solution was prepared by diluting formaldehyde (Formalde-fresh 20%, Fisher Scientific, Fair Lawn, N.J.) with distilled water. Investigatory compounds were administered 30 minutes prior to formalin injection.
A computer software recorded flinches per minute, total flinches for Phase I (acute phase=first 8 minutes), and total flinches for Phase II (tonic phase between 20-40 minutes) through an electromagnetic field. See Yaksh T L, Ozaki G, McCumber D, Rathbun M, Svensson C, Malkmus S, Yaksh M C. An automated flinch detecting system for use in the formalin nociceptive bioassay. J Appl Physiol., 2001; 90:2386-402.
Various compounds of the invention were tested at different doses. Gabapentin and pregabalin were used as positive controls. Results are shown below in Table 2, wherein “*” means an effect equal to or greater than 50 percent of that of gabapentin at 200 mpk, “**” means an effect equal to or greater than 100 percent of that of gabapentin at 200 mpk, “sc” means subcutaneous administration, “ip” means in intraperitoneal administration, and “po” means oral administration.

**Q.** Which IC50 [1] does the source give for `COc1ccc(-c2cnn3ccc(NC[C@@H]4CCCN4C(=O)OC(C)(C)C)nc23)cc1` here?
**A.** ≤ 0.01 µM

**Q.** And the IC50 [2]?
**A.** ≤ 0.01 µM

**Q.** `CCCCNc1ccc2ncc(-c3ccc(-c4nnn[nH]4)cc3)n2n1` [3-(4-(1H-tetrazol-5-yl)phenyl)-N-butylimidazo[1,2-b]pyridazin-6-amine] was tested. Which Effect ([3]; 60 mpk ip) did it give?
**A.** ** (an effect equal to or greater than 100% of that of gabapentin at 200 mpk)

**Q.** `NCc1ccc(-c2cnc3ccc(NCCOC4CCCC4)nn23)cc1` [3-(4-(aminomethyl)phenyl)-N-(2-(cyclopentyloxy)ethyl)imidazo[1,2-b]pyridazin-6-amine] was tested. Which Effect ([3]; 60 mpk sc) did it give?
**A.** ** (an effect equal to or greater than 100% of that of gabapentin at 200 mpk)

**Q.** What about the Effect ([3]; 100 mpk sc) of the same molecule?
**A.** ** (an effect equal to or greater than 100% of that of gabapentin at 200 mpk)

**Q.** For `CC(C)(C)OCCNc1ccc2ncc(-c3ccc(CN)cc3)n2n1` [3-(4-(aminomethyl)phenyl)-N-(2-(tert-butoxy)ethyl)imidazo[1,2-b]pyridazin-6-amine], which Effect ([3]; 60 mpk sc) is on record?
**A.** ** (an effect equal to or greater than 100% of that of gabapentin at 200 mpk)

**Q.** How did the Effect ([3]; 60 mpk sc) turn out when `CC(C)(C)OCCCNc1ccc2ncc(-c3ccc(CN)cc3)n2n1` [3-(4-(aminomethyl)phenyl)-N-(3-(tert-butoxy)propyl)imidazo[1,2-b]pyridazin-6-amine] was run?
**A.** ** (an effect equal to or greater than 100% of that of gabapentin at 200 mpk)

**Q.** How did the Effect ([3]; 30 mpk ip) turn out when `NCc1ccc(-c2cnc3ccc(NCCCc4ccccc4)nn23)cc1` [3-(4-(aminomethyl)phenyl)-N-(3-phenylpropyl)imidazo[1,2-b]pyridazin-6-amine] was run?
**A.** ** (an effect equal to or greater than 100% of that of gabapentin at 200 mpk)

**Q.** What does the source list for `CC(C)C[C@@H](N)COc1ccc2c(c1)OCc1cnccc1-2` [(R)-1-(5H-chromeno[3,4-c]pyridin-8-yloxy)-4-methylpentan-2-amine]?
**A.** Effect ([3]; 10 mpk sc, given as a number, relative to gabapentin at 200 mpk): 45%; Effect ([3]; 30 mpk sc): * (an effect equal to or greater than 50% of that of gabapentin at 200 mpk)

**Q.** Which results are given for `COc1ncccc1-c1cnc2ccc(N3CC[C@H](N(C)C(=O)OC(C)C)C3)nn12` [(S)-isopropyl (1-(3-(2-methoxypyridin-3-yl)imidazo[1,2-b]pyridazin-6-yl)pyrrolidin-3-yl)(methyl)carbamate]?
**A.** Effect ([3]; 10 mpk po): * (an effect equal to or greater than 50% of that of gabapentin at 200 mpk); Effect ([3]; 30 mpk po): ** (an effect equal to or greater than 100% of that of gabapentin at 200 mpk); Effect ([3]; 60 mpk po): ** (an effect equal to or greater than 100% of that of gabapentin at 200 mpk)

**Q.** Which Effect ([3]; 60 mpk sc) does the source give for `CC(C)(C)OC(=O)N1CCC[C@H]1CNc1ccc2ncc(-c3ccc(CN)cc3)n2n1` [(S)-tert-butyl 2-(((3-(4-(aminomethyl)phenyl)imidazo[1,2-b]pyridazin-6-yl)amino)methyl)pyrrolidine-1-carboxylate] here?
**A.** ** (an effect equal to or greater than 100% of that of gabapentin at 200 mpk)

**Q.** What does the source list for `CC(C)(C)OC(=O)N1CCC[C@H]1CNc1ccc2ncc(Br)n2n1` [(S)-tert-butyl 2-(((3-bromoimidazo[1,2-b]pyridazin-6-yl)amino)methyl)pyrrolidine-1-carboxylate]?
**A.** Effect ([3]; 30 mpk sc): ** (an effect equal to or greater than 100% of that of gabapentin at 200 mpk); Effect ([3]; 60 mpk sc): ** (an effect equal to or greater than 100% of that of gabapentin at 200 mpk)

**Q.** Which results are given for `NCC1(CC(=O)O)CCCCC1` [Gabapentin, reference compound]?
**A.** Effect ([3]; 50 mpk sc): * (an effect equal to or greater than 50% of that of gabapentin at 200 mpk); Effect ([3]; 200 mpk sc): ** (an effect equal to or greater than 100% of that of gabapentin at 200 mpk)

**Q.** Which Effect ([3]; 30 mpk ip) does the source give for `CCCCNc1ccc2ncc(-c3ccc(C(=O)NCCN)cc3)n2n1` [N-(2-aminoethyl)-4-(6-(butylamino)imidazo[1,2-b]pyridazin-3-yl)benzamide] here?
**A.** ** (an effect equal to or greater than 100% of that of gabapentin at 200 mpk)

**Q.** Which Effect ([3]; 50 mpk sc) does the source give for `CC(C)C[C@H](CN)CC(=O)O` [Pregabalin, reference compound] here?
**A.** * (an effect equal to or greater than 50% of that of gabapentin at 200 mpk)

**Q.** For `COc1ccccc1-c1cnc2ccc(N3CCN(C(=O)OC(C)C)CC3)nn12` [isopropyl 4-(3-(2-methoxyphenyl)imidazo[1,2-b]pyridazin-6-yl)piperazine-1-carboxylate], which Effect ([3]; 30 mpk sc) is on record?
**A.** ** (an effect equal to or greater than 100% of that of gabapentin at 200 mpk)

**Q.** And the Effect ([3]; 60 mpk sc)?
**A.** ** (an effect equal to or greater than 100% of that of gabapentin at 200 mpk)

**Q.** With `COc1ccccc1-c1cnn2ccc(N3CCN(C(=O)OC(C)C)CC3)nc12` [isopropyl 4-(3-(2-methoxyphenyl)pyrazolo[1,5-a]pyrimidin-5-yl)piperazine-1-carboxylate] as the molecule, how does the Effect ([3]; 30 mpk sc) read?
**A.** ** (an effect equal to or greater than 100% of that of gabapentin at 200 mpk)

**Q.** How did the Effect ([3]; 10 mpk po) turn out when `COc1ncccc1-c1cnn2ccc(N3CCN(C(=O)OC(C)C)CC3)nc12` [isopropyl 4-(3-(2-methoxypyridin-3-yl)pyrazolo[1,5-a]pyrimidin-5-yl)piperazine-1-carboxylate] was run?
**A.** * (an effect equal to or greater than 50% of that of gabapentin at 200 mpk)

**Q.** And the Effect ([3]; 30 mpk po)?
**A.** ** (an effect equal to or greater than 100% of that of gabapentin at 200 mpk)
